# According to patent publication EP4778531A1, “MUSCLE RELAXANT ANTAGONIST FOR REVERSAL FOR BENZYLISOQUINOLINE MUSCLE RELAXANT” (priority 2023, dated 2025):
# Tested on: Wild-type AB strain zebrafish
# Test: Evaluation of compound-induced sensitization risk in zebrafish (tryptase OD, BAPNA)
# Format: in vivo
# Conditions: 500 ng/tail
# Experimental: Wild-type AB strain zebrafish at 2 days post-fertilization (2 dpf) were randomly selected and placed in 24-well plates. Each group was with 6 replicate wells per group and 10 zebrafish per well. The following groups were set up: (1) Normal control group; (2) Positive control group (the used drug was mast cell sensitizer C48/80 at 1.5 µg/mL concentration); (3) Compound 1 (adamgammadex sodium) experimental group; (4) Compound 2 experimental group; (5) Compound 3 experimental group; (6) Compound 4 experimental group; (7) Compound 5 experimental group; (8) Compound 6 experimental group; (9) Compound 7 (sugammadex sodium) experimental group. In the experimental groups, Compound 1 was adamgammadex sodium, Compounds 2-6 were adamgammadex sodium analogues, and Compound 7 was sugammadex sodium. The volume of each well was 1 mL, and all experimental groups were treated with BAPNA (a specific detection reagent for mast cell degranulation) dissolved in water. Table 1: Structural Formulas of Compounds 1-7
# After 1 day of treatment at 28°C, the liquid was transferred to a 96-well plate, with 200 µL/well. The relative absorbance (OD value) of tryptase expression levels in each experimental group was measured using a microplate reader. The OD value statistical analysis results were used to evaluate the sensitization risk of the samples. Statistical analysis was performed using SPSS software, with p < 0.05 indicating a significant difference. Sensitization risk (%) = (OD(Samplegroup)−OD(NormalControlgroup))/(OD (NormalControlgroup)) × 100% [formula]
substance,measurement,setting,value
Adamgammadex sodium [Compound 1],OD value (mean ± SE),"1 day at 28°C, relative absorbance of tryptase expression levels",0.060 ± 0.001
same,Sensitization risk (%),"1 day at 28°C, vs normal control OD",11%
same,sensitization risk (in words),conclusion from OD value,almost no sensitization risk
